Test results reported in PMC8286840, “Identifying SARS-CoV-2 antiviral compounds by screening for small molecule inhibitors of Nsp3 papain-like protease” (Biochemical Journal, 2021).
Where a name gives a salt, the structure may show the parent alone. Read-outs that look alike come from different tables or passages of the source.

Key:
[1] = target: T1, SARS-CoV-2 PLpro (nsp3 1564–1878) (Severe acute respiratory syndrome coronavirus 2, UniProt P0DTD1); assay: biochemical; parameters: FRET-quenched peptide (Pro3) cleavage by PLpro, 10 min pre-incubation, slope over 20 min, normalised to no-compound control; settings: low concentration screen, read-out: % of control remaining
[2] = target: T1, SARS-CoV-2 PLpro (nsp3 1564–1878); assay: biochemical; parameters: FRET-quenched peptide (Pro3) cleavage by PLpro, 10 min pre-incubation, slope over 20 min, normalised to no-compound control; settings: high concentration screen, read-out: % of control remaining

Work on `Cc1ccc(NC(=O)CCCCCC(=O)Nc2ccccc2N)cc1` [Pimelic Diphenylamide 106 (analog)] yielded a remaining activity at 1.25 µM ([1]; Well no.=8230) of 104% and a remaining activity at 3.75 µM ([2]; Well no.=8230) of 102%.

`Cc1ccc(NC(=O)CCCCCC(=O)Nc2ccccc2N)cc1` [Pimelic Diphenylamide 106] gave a remaining activity at 1.25 µM ([1]; Well no.=5991) of 101% and a remaining activity at 3.75 µM ([2]; Well no.=5991) of 99.4%.

`O=C(O)CCCCCC(=O)O` [Pimelic acid] showed a remaining activity at 1.25 µM ([1]; Well no.=7115) of 96.9% and a remaining activity at 3.75 µM ([2]; Well no.=7115) of 99.2%.

For `COc1ccc(-c2nc3cc(C4=NNC(=O)CC4C)ccc3[nH]2)cc1` (stereo not shown) [Pimobendan (Vetmedin)], the remaining activity at 1.25 µM ([1]; Well no.=4957) was 100% and the remaining activity at 3.75 µM ([2]; Well no.=4957) was 103%.

With `O=c1[nH]c2ccccc2n1C1CCN(CCCC(c2ccc(F)cc2)c2ccc(F)cc2)CC1` [Pimozide] the remaining activity at 1.25 µM ([1]; Well no.=1094) was 93.3%, the remaining activity at 1.25 µM ([1]; Well no.=1595) was 99.2% and the remaining activity at 3.75 µM ([2]; Well no.=1094) was 95%. The remaining activity at 3.75 µM ([2]; Well no.=1595) was 95.7%.

`CC(N/C(=N\C#N)Nc1ccncc1)C(C)(C)C` (stereo not shown) [Pinacidil] gave a remaining activity at 1.25 µM ([1]; Well no.=1503) of 98.1%, a remaining activity at 1.25 µM ([1]; Well no.=1603) of 103% and a remaining activity at 3.75 µM ([2]; Well no.=1503) of 97.2%. For the same compound, the remaining activity at 3.75 µM ([2]; Well no.=1603) was 98.9%.

In the case of `O=C1C[C@@H](c2ccccc2)Oc2cc(O)cc(O)c21` [Pinocembrin], the remaining activity at 1.25 µM ([1]; Well no.=3587) is reported as 99.6% and the remaining activity at 3.75 µM ([2]; Well no.=3587) is reported as 98.4%.

In the case of `CCc1ccc(CCOc2ccc(CC3SC(=O)NC3=O)cc2)nc1` (stereo not shown) [Pioglitazone], the remaining activity at 1.25 µM ([1]; Well no.=1718) is reported as 98.7% and the remaining activity at 3.75 µM ([2]; Well no.=1718) is reported as 98%.

Compound `O=C(O)C1CCCCN1` (stereo not shown) [Pipecolic acid] has a remaining activity at 1.25 µM ([1]; Well no.=6929) of 103% and a remaining activity at 3.75 µM ([2]; Well no.=6929) of 102%.

`CCN1CCN(C(=O)N[C@@H](C(=O)N[C@@H]2C(=O)N3[C@@H]2SC(C)(C)[C@@H]3C(=O)O)c2ccccc2)C(=O)C1=O` [Piperacillin (sodium)] gave a remaining activity at 1.25 µM ([1]; Well no.=8072) of 96.2% and a remaining activity at 3.75 µM ([2]; Well no.=8072) of 91.7%.

Compound `CCN1CCN(C(=O)N[C@@H](C(=O)N[C@@H]2C(=O)N3[C@@H]2SC(C)(C)[C@@H]3C(=O)O)c2ccccc2)C(=O)C1=O` [Piperacillin] has a remaining activity at 1.25 µM ([1]; Well no.=2107) of 104% and a remaining activity at 3.75 µM ([2]; Well no.=2107) of 104%.

With `O=S(=O)(O)C1CCNCC1` [Piperidine-4-sulphonic acid] the remaining activity at 1.25 µM ([1]; Well no.=1449) was 99.5% and the remaining activity at 3.75 µM ([2]; Well no.=1449) was 94.6%.

Work on `O=C(/C=C/C=C/c1ccc2c(c1)OCO2)N1CCCCC1` [Piperine] yielded a remaining activity at 1.25 µM ([1]; Well no.=3110) of 92.8%, a remaining activity at 1.25 µM ([1]; Well no.=8242) of 99.3% and a remaining activity at 3.75 µM ([2]; Well no.=3110) of 94.5%. It also gave a remaining activity at 3.75 µM ([2]; Well no.=8242) of 96.3%.

`c1ccc2c(c1)OCC(CN1CCCCC1)O2` (stereo not shown) [Piperoxan (hydrochloride)] gave a remaining activity at 1.25 µM ([1]; Well no.=7383) of 106% and a remaining activity at 3.75 µM ([2]; Well no.=7383) of 105%.

`NC(=O)CN1CCCC1=O` [Piracetam] gave a remaining activity at 1.25 µM ([1]; Well no.=1100) of 96.7% and a remaining activity at 3.75 µM ([2]; Well no.=1100) of 97.5%.

For `Cc1nc2ccccn2c(=O)c1CCN1CCC(C(=O)c2ccc(F)cc2)CC1` [Pirenperone], the remaining activity at 1.25 µM ([1]; Well no.=1359) was 101% and the remaining activity at 3.75 µM ([2]; Well no.=1359) was 102%.

Work on `Cc1ccc(=O)n(-c2ccccc2)c1` [Pirfenidone] yielded a remaining activity at 1.25 µM ([1]; Well no.=904) of 107% and a remaining activity at 3.75 µM ([2]; Well no.=904) of 109%.

In the case of `c1cnc(N2CCN(Cc3ccc4c(c3)OCO4)CC2)nc1` [Piribedil maleate], the remaining activity at 1.25 µM ([1]; Well no.=1163) is reported as 96.1% and the remaining activity at 3.75 µM ([2]; Well no.=1163) is reported as 96.2%.

Work on `c1cnc(N2CCN(Cc3ccc4c(c3)OCO4)CC2)nc1` [Piribedil.2HCl] yielded a remaining activity at 1.25 µM ([1]; Well no.=1841) of 96.6% and a remaining activity at 3.75 µM ([2]; Well no.=1841) of 95.4%.

For `CN1C(C(=O)Nc2ccccn2)=C(O)c2ccccc2S1(=O)=O` [Piroxicam], the remaining activity at 1.25 µM ([1]; Well no.=862) was 99.8%, the remaining activity at 1.25 µM ([1]; Well no.=1566) was 98.4% and the remaining activity at 3.75 µM ([2]; Well no.=862) was 103%. It also gave a remaining activity at 3.75 µM ([2]; Well no.=1566) of 99.8%.

`O=C(O)C[C@H](O)C[C@H](O)/C=C/c1c(C2CC2)nc2ccccc2c1-c1ccc(F)cc1` [Pitavastatin Calcium] was tested, and the remaining activity at 1.25 µM ([1]; Well no.=8334) was 97.4% and the remaining activity at 3.75 µM ([2]; Well no.=8334) was 95.7%.

`Clc1ccc(CCCOCCCN2CCCCC2)cc1` [Pitolisant (hydrochloride)] gave a remaining activity at 1.25 µM ([1]; Well no.=6225) of 100% and a remaining activity at 3.75 µM ([2]; Well no.=6225) of 101%.

`CC(C)(C)C(=O)OCOC(=O)[C@@H]1N2C(=O)[C@@H](/N=C/N3CCCCCC3)[C@H]2SC1(C)C` [Pivmecillinam] gave a remaining activity at 1.25 µM ([1]; Well no.=5414) of 93.3% and a remaining activity at 3.75 µM ([2]; Well no.=5414) of 98.6%.

Compound `CN1CCC(=C2c3ccccc3CCc3sccc32)CC1` [Pizotifen] has a remaining activity at 1.25 µM ([1]; Well no.=7531) of 103% and a remaining activity at 3.75 µM ([2]; Well no.=7531) of 91.1%.

`c1cc(CN2CCCNCCNCCCNCC2)ccc1CN1CCCNCCNCCCNCC1` [Plerixafor (octahydrochloride)] gave a remaining activity at 1.25 µM ([1]; Well no.=8020) of 95.7%, a remaining activity at 1.25 µM ([1]; Well no.=8097) of 104% and a remaining activity at 1.25 µM ([1]; Well no.=8749) of 100%. It also gave a remaining activity at 3.75 µM ([2]; Well no.=8020) of 94.1%, a remaining activity at 3.75 µM ([2]; Well no.=8097) of 101% and a remaining activity at 3.75 µM ([2]; Well no.=8749) of 100%.

In the case of `c1cc(CN2CCCNCCNCCCNCC2)ccc1CN1CCCNCCNCCCNCC1` [Plerixafor], the remaining activity at 1.25 µM ([1]; Well no.=6893) is reported as 101%, the remaining activity at 1.25 µM ([1]; Well no.=8356) is reported as 91.6% and the remaining activity at 1.25 µM ([1]; Well no.=8751) is reported as 98.3%. The remaining activity at 3.75 µM ([2]; Well no.=8356) was 92.1% and the remaining activity at 3.75 µM ([2]; Well no.=8751) was 99.2%.

Work on `CO[C@H](C(=O)[C@@H](O)[C@@H](C)O)[C@@H]1Cc2cc3cc(O[C@H]4C[C@@H](O[C@@H]5C[C@@H](O)[C@H](O)[C@@H](C)O5)[C@H](O)[C@@H](C)O4)c(C)c(O)c3c(O)c2C(=O)[C@H]1O[C@H]1C[C@@H](O[C@@H]2C[C@@H](O)[C@@H](O[C@@H]3C[C@](C)(O)[C@H](O)[C@@H](C)O3)[C@@H](C)O2)[C@H](O)[C@@H](C)O1` [Plicamycin] yielded a remaining activity at 1.25 µM ([1]; Well no.=1666) of 107% and a remaining activity at 3.75 µM ([2]; Well no.=1666) of 106%.

For `CC(C)(C)c1[nH]cnc1/C=c1\[nH]c(=O)/c(=C/c2ccccc2)[nH]c1=O` [Plinabulin (NPI-2358)], the remaining activity at 1.25 µM ([1]; Well no.=4834) was 99% and the remaining activity at 3.75 µM ([2]; Well no.=4834) was 102%.

Compound `CC1=CC(=O)c2c(O)cccc2C1=O` [Plumbagin] has a remaining activity at 1.25 µM ([1]; Well no.=3351) of 85.5% and a remaining activity at 3.75 µM ([2]; Well no.=3351) of 79.6%.

`C[C@]1(C(=O)O)CCC[C@]2(C)c3cc(O)ccc3CC[C@@H]12` [Podocarpic acid] was tested, and the remaining activity at 1.25 µM ([1]; Well no.=3296) was 94% and the remaining activity at 3.75 µM ([2]; Well no.=3296) was 96.2%.

`COc1cc([C@@H]2c3cc4c(cc3[C@H](O)[C@H]3COC(=O)[C@H]23)OCO4)cc(OC)c1OC` [Podophyllotoxin] showed a remaining activity at 1.25 µM ([1]; Well no.=1002) of 91.2%, a remaining activity at 1.25 µM ([1]; Well no.=3705) of 99.5% and a remaining activity at 3.75 µM ([2]; Well no.=1002) of 92.3%. For the same compound, the remaining activity at 3.75 µM ([2]; Well no.=3705) was 105%.
